In ChEMBL document CHEMBL1149856, “Insulinomimetic effect of kaempferol 3-neohesperidoside on the rat soleus muscle” (2008):
Active and inactive are the calls of the source. No cut-off for these calls is given here.

Legend:
[1] = test system: Soleus muscle; experiment: Inhibition of 14C-glucose uptake in Wistar rat soleus muscle at 1 nM in presence of LY-294002; type: functional, tissue-based
[2] = test system: Soleus muscle; experiment: Inhibition of 14C-glucose uptake in Wistar rat soleus muscle at 1 nM in presence of RO318220; type: functional, tissue-based
[3] = test system: Soleus muscle; experiment: Stimulation of 14C-glucose uptake in Wistar rat soleus muscle at 1 nM in presence of PD-98059; type: functional, tissue-based
[4] = test system: Soleus muscle; experiment: Stimulation of 14C-glucose uptake in Wistar rat soleus muscle at 1 nM in presence of cycloheximide; type: functional, tissue-based
[5] = test system: Rattus norvegicus; experiment: Increase in glycogen level in diabetic Wistar rat soleus muscle at 100 mg/kg after 24 hrs; type: functional
[6] = Stimulation of 14C-glucose uptake in Wistar rat soleus muscle at 1 nM
[7] = Stimulation of 14C-glucose uptake in Wistar rat soleus muscle at 100 nM

Question: For `C[C@H]1O[C@H](O[C@H]2[C@H](Oc3c(-c4ccc(O)cc4)oc4cc(O)cc(O)c4c3=O)O[C@H](CO)[C@@H](O)[C@@H]2O)[C@@H](O)[C@@H](O)[C@@H]1O`, which Activity [1] is on record?
Answer: Active

Question: What about the Activity [2] of the same compound?
Answer: Active

Question: And the Activity [3]?
Answer: Active

Question: And the Activity [4]?
Answer: Active

Question: What about the Activity [5] of the same compound?
Answer: 380%

Question: And the Activity [6]?
Answer: 35%

Question: And the Activity [7]?
Answer: 21%
